# Columns and labels:
# [1] = molecular target: T1, PARP16 (Homo sapiens, UniProt Q8N5Y8); experiment: Proximity-enhanced mono-ART activity assay, PARP16; format: biochemical; conditions: > less than 50% inhibition
# T1 construct: dockerin domain of Hungateiclostridium thermocellum Cel48s (C); made in house; host or cells: Escherichia coli
# T1 sequence (Q8N5Y8 1-322): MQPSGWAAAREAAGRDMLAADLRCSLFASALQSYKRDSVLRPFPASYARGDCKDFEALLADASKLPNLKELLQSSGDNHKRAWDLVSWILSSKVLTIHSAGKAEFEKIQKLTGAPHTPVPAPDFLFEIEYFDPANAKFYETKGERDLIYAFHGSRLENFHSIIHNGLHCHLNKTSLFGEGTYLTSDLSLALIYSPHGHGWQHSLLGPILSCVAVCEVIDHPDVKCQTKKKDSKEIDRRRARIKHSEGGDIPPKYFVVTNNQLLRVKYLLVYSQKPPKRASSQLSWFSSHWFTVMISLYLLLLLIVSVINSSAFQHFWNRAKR
# Protocol: We therefore had to improve the assay method and developed a homogeneous proximity enhanced assay for mono-ARTs.[47]
# (§1) The proteins used in Tables 1–3 were produced as described earlier. Dockerin constructs to allow enhanced activity assays for mono-ARTs (Table 4) were produced in Escherichia coli with an N-terminal maltose binding protein (MBP) and a C-terminal dockerin domain from Hungateiclostridium thermocellum Cel48s as described recently.[47]
# (§2) Inhibition experiments were performed using a homogenous assay measuring NAD+ consumption.[80]−[82] Reactions were carried out in quadruplicate, and IC50 curves were fitted using sigmoidal dose response curve (four variables) in GraphPad Prism version 8.02. […] Assay conditions for PARP2, TNKS2, PARP10, and PARP15 (Tables 1–3) were recently reported.[44] The conditions for the proximity-enhanced mono-ART assays (Table 4) were also reported recently.[47] PARP6 (400 nM) inhibition was measured using the standard buffer (50 mM sodium phosphate pH 7.0) for the enhanced activity assay using 500 nM NAD^+ and 18 h incubation in r.t..
# [2] = molecular target: T2, TNKS2 (Homo sapiens, UniProt Q9H2K2); experiment: biochemical; conditions: read-out: TNKS2 IC50; > = less than 50% inhibition at highest concentration
# T2 sequence (Q9H2K2 1-1166): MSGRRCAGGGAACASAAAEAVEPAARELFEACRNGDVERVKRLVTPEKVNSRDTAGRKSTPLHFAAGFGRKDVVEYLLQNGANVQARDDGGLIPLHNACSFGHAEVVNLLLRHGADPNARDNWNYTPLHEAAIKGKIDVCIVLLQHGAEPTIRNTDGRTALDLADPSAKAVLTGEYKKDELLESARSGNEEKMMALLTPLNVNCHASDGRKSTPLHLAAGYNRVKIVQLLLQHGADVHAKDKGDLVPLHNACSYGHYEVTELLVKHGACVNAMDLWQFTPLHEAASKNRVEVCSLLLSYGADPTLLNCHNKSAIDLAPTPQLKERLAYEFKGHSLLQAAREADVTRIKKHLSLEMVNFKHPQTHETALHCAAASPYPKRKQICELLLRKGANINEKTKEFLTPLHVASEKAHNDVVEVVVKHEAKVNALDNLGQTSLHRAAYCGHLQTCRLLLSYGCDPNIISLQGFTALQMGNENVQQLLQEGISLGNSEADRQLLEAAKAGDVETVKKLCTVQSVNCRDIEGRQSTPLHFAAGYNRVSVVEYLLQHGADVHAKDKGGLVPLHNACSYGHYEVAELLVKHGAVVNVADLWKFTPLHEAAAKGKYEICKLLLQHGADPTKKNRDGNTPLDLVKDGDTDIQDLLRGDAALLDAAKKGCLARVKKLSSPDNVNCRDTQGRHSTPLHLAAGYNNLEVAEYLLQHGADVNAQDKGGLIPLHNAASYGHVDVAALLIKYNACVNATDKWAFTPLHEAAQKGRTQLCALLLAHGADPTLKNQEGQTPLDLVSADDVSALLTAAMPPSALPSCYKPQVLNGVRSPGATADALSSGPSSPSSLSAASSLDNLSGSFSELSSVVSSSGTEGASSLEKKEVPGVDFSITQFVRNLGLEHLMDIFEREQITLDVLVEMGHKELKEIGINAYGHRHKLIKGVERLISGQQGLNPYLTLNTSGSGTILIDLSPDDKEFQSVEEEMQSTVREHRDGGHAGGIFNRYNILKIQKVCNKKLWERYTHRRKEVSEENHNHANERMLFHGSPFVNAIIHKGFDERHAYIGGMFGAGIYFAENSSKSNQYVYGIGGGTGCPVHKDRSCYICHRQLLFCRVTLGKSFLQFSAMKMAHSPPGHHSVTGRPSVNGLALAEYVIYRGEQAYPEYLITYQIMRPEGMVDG
# Protocol: as §1, §2
Structure (SMILES),IC50 [1],IC50 [2]
"COc1ccc(OC)c2c1sc1nnc(N)n12 [Compound 27, 5,8-Dimethoxy[1,2,4]triazolo[3,4-b][1,3]benzothiazol-3-amine]",3.4 µM,10 µM
"Cc1ccc2c(c1)sc1nnc(N)n12 [Compound 21, 7-Methyl[1,2,4]triazolo[3,4-b][1,3]benzothiazol-3-amine]",5.2 µM,5.7 µM
